What all share (assay type): biochemical
Assay [1] has as its target Nitric oxide synthase (neuronal, human recombinant) nNOS (Homo sapiens (Human), UniProt P29475). Description: Human nNOS enzyme assay ([3H]-L-arginine to L-citrulline conversion). The conditions noted are these: for Selectivity eNOS/nNOS: ratio of human eNOS IC50 to human nNOS IC50; for IC50: recombinant human nNOS. As for the experimental part:
(§1) nNOS (Human), eNOS (Human) and iNOS (Human) Enzyme Assay
(§2) Primary stock solutions of test compounds at a concentration of 6 mM were prepared from the 2 to 5 mg powder. The primary stock solutions of each test compound were prepared freshly in distilled water on the day of study to obtain a final concentration of 6 mM. For determination of IC50 values, 12 test compound concentrations were prepared as 3-fold serial dilutions. Concentration range of test compound utilized for nNOS were 0.001 to 300 μM and for eNOS were 0.003 to 1000 μM. The vehicle of the test compound or inhibitor was used as blank control. For non-specific activity, 100 μM L-NMMA was used. Runs using the IC50 concentration of L-NAME were done in parallel as controls.
(§3) All incubations are performed in duplicate
(§4) The reaction mixture was prepared on ice by adding the following components with a micropipette to a polypropylene microcentrifuge tube: • 10 μL of test compound, inhibitor or control (vehicle or L-NMMA) solution; • 25 μL of Reaction Buffer {25 mM Tris-HCl, 0.6 μM BH4, 0.2 μM FMN, 0.2 μM FAD}; • 5 μL of 10 mM NADPH solution {1 mM} (freshly prepared in 10 mM Tris-HCl (pH 7.4); • 5 μL of 6 mM CaCl2 {600 W}; • 5 μL of 1 mM Calmodulin {100 W}; and • 5 μL of 0.02 μg/μL nNOS or 0.12 μg/μL eNOS.
(§5) The above reaction mixture was pre-incubated at room temperature for 15 mins.
(§6) The reaction was started by the addition of the substrate (in 5 μL containing 1 μCi of [^3H]-L-Arginine+2.5 μM of unlabeled L-Arginine) to the reaction mixture. Total reaction volume is 60 μL.
(§7) The reaction was mixed using a vortex mixer and incubate the above reaction mixture at 37° C. in an incubator for 30 minutes.
(§8) To stop the reaction, 400 μL of ice-cold Stop Buffer was added at the end of the incubation period.
(§9) The reaction was then mixed using a vortex mixer, and the reaction samples were transferred to spin cups, which were centrifuged using a microcentrifuge, at 13,000 rpm for 30 sec. at room temperature.
(§10) The spin cups were removed from the holder, 450 μL of eluate (containing the unbound L-citrulline) were transferred to scintillation vials. 3 mL of scintillation fluid were added and the radioactivity was quantified in a liquid scintillation counter.
(§11) Data was analyzed using a Sigmoidal dose-response (variable slope) curve to determine the IC50 value of the test compound. Y=Bottom+(Top−Bottom)/(1+10^((Log IC50−X)*Hill Slope))

The target in assay [2] is Nitric oxide synthase (endothelial, human recombinant) eNOS (Homo sapiens (Human), UniProt P29474). Kind of assay: Human eNOS enzyme assay ([3H]-L-arginine to L-citrulline conversion). The procedure: as §1, §2, §3, §4, §5, §6, §7, §8, §9, §10, §11
Assay [3] deals with Recombinant human inducible NOS (iNOS) (Homo sapiens (Human), UniProt P35228). Description: Human iNOS enzyme assay (Protocol 1 or Protocol 2, radiometric). The procedure: The human iNOS assay was carried by either one of the two protocols as described herein:
Recombinant human inducible NOS (iNOS) was produced in Baculovirus-infected Sf9 cells (ALEXIS). In a radiometric method, NO synthase activity was determined by measuring the conversion of [^3H]L-arginine to [^3H]L-citrulline. To measure iNOS, 10 μL of enzyme was added to 100 μL of 100 mM HEPES, pH=7.4, containing 1 mM CaCl2, 1 mM EDTA, 1 mM dithiothreitol, 1 μM FMN, 1 μM FAD, 10 μM tetrahydrobiopterin, 120 μM NADPH, and 100 nM CaM.
To measure enzyme inhibition, a 15 μL solution of a test substance was added to the enzyme assay solution, followed by a pre-incubation time of 15 min at RT. The reaction was initiated by addition of 20 μL L-arginine containing 0.25 μCi of [^3H] arginine/mL and 24 μM L-arginine. The total volume of the reaction mixture was 150 μL in every well. The reactions were carried out at 37° C. for 45 minutes, The reaction was stopped by adding 20 μL of ice-cold buffer containing 100 mM HEPES, 3 mM EGTA, 3 mM EDTA, pH=5.5. [^3H]L-citrulline was separated by DOWEX (ion-exchange resin DOWEX 50 W×8-400, SIGMA) and the DOWEX was removed by spinning at 12,000 g for 10 min in the centrifuge. An aliquot (70 μL) of the supernatant was added to 100 μL of scintillation fluid, and the samples were counted in a liquid scintillation counter (1450 Microbeta Jet, Wallac). Specific NOS activity was reported as the difference between the activity recovered from the test solution and that observed in a control sample containing 240 mM of the inhibitor L-NMMA. All assays were performed at least in duplicate. Standard deviations are 10% or less.
Primary stock solutions of each test compound were prepared in distilled water on the day of study to obtain a final concentration of 6 mM. For the determination of IC50 values, 11 test compound concentrations were prepared as 3-fold serial dilutions. Test compounds were tested in the iNOS assay at a concentration of 1000 μM to 0.0169 μM. The vehicle of the test compound or inhibitor, distilled water, was used as blank control. For non-specific activity, 100 μM L-NMMA was run in parallel as a control.
All incubations were performed in duplicate
The reaction mixture was prepared on ice by the addition of the following components to the appropriate well of a 1.0 mL 96-well polypropylene plate:
10 μL of test compound, reference inhibitor, or control (vehicle or L-NMMA) solution;
25 μL of Reaction Buffer (50 mM Tris-HCl, 6 μM BH4, 2 μM FMN, 2 μM FAD);
5 μL of 10 mM NADPH solution;
5 μL of 1 μM Calmodulin; and
The reaction mixture was pre-incubated at room temperature for 15 minutes. Following this pre-incubation, the reaction was initiated by the addition of 5 μL of the substrate L-arginine (1 μCi of [^3H]-L-Arginine+30 μM of unlabeled L-Arginine) to the reaction mixture. The total reaction volume was 60 μL. The assay plate containing the reaction mixtures was sealed and incubated at 37° C. for 30 minutes. At the end of this incubation period, 400 μL of ice-cold Stop Buffer (the EDTA in the Stop Buffer chelates all of the available calcium) was added to each well to stop the reaction. 100 μL of equilibrated resin pH 5.5 was added to each of the assay wells. The reaction samples were vortexed and transferred to spin cups, after-which they were centrifuged at 13,000 rpm for 30 sec. The spin cups were removed from the holder and […] (containing the unbound L-citrulline) were added to the appropriate wells of a 96-well liquid scintillation plate. 175 μL of scintillation fluid were also added to each well. The plate was sealed, and radioactivity was quantitated using a Microbeta liquid scintillation counter.
Data were analyzed using a Sigmoidal dose-response (variable slope) curve to determine the IC50 value of the test compound. Y=Bottom+(Top−Bottom)/(1+10^((Log IC50−X)*Hill Slope))

We go through 13 compounds from patent US8618286B2, “Benzoxazines, benzothiazines, and related compounds having NOS inhibitory activity” (NeurAxon, Inc., priority 2008, dated 2013).

Each structure is given as a SMILES string. Structures can show the parent of a compound that is named as a salt.

Consider `CN(C)CCN1CCSc2cc(NC(=N)c3ccco3)ccc21` [Compound 19, N-(4-(2-(dimethylamino)ethyl)-3,4-dihydro-2H-benzo[b][1,4]thiazin-7-yl)furan-2-carboximidamide], for which the “Selectivity eNOS/nNOS” value in assay [1] is recorded as 676. For the same compound, the IC50 came out at 0.14 µM in assay [1], 94.7 µM in assay [2] and 136 µM in assay [3].

As for `CCNCCN1CCOc2cc(NC(=N)c3cccs3)ccc21` [Compound 7, N-(4-(2-(ethylamino)ethyl)-3,4-dihydro-2H-benzo[b][1,4]oxazin-7-yl)thiophene-2-carboximidamide dihydrochloride], the “Selectivity eNOS/nNOS” value in assay [1] came out at 9.8. For the same compound, the IC50 is 1.06 µM in assay [1], 10.4 µM in assay [2] and above 100 µM in assay [3].

As for `N=C(Nc1ccc2c(c1)N(CCN1CCCC1)CCS2)c1cccs1` [Compound 25, N-(4-(2-(pyrrolidin-1-yl)ethyl)-3,4-dihydro-2H-benzo[b][1,4]thiazin-6-yl)thiophene-2-carboximidamide], the “Selectivity eNOS/nNOS” value in assay [1] worked out at 90.5. For the same compound, the IC50 in assay [1] amounted to 0.2 µM; in assay [2], 18.1 µM; in assay [3] it was 43.6 µM.

With `CNCCCN1CCSc2cc(NC(=N)c3cccs3)ccc21` [Compound 23, N-(4-(3-(methylamino)propyl)-3,4-dihydro-2H-benzo[b][1,4]thiazin-7-yl)thiophene-2-carboximidamide], the “Selectivity eNOS/nNOS” value in assay [1] stood at 664. For the same compound, the IC50 in assay [1] came to 0.028 µM; in assay [2] it was 18.6 µM; in assay [3], 172 µM.

In the case of `N=C(Nc1ccc2c(c1)SCCN2CCCN1CCCC1)c1cccs1` [Compound 21, N-(4-(3-(pyrrolidin-1-yl)propyl)-3,4-dihydro-2H-benzo[b][1,4]thiazin-7-yl)thiophene-2-carboximidamide], the “Selectivity eNOS/nNOS” value in assay [1] turned out to be 71.4. In addition, the results for the IC50 in assay [1], in assay [2] and in assay [3] were 0.14 µM, 10 µM and 49.6 µM, respectively.

As for `CN(C)CCN1CCOc2cc(NC(=N)c3cccs3)ccc21` [Compound 6, N-(4-(2-(dimethylamino)ethyl)-3,4-dihydro-2H-benzo[b][1,4]oxazin-7-yl)thiophene-2-carboximidamide], the “Selectivity eNOS/nNOS” value in assay [1] is 208.5. Besides, the IC50 stood at 0.2 µM in assay [1], 41.7 µM in assay [2] and 10.9 µM in assay [3].

`CN(C)CCN1CCSc2cc(NC(=N)c3cccs3)ccc21` [Compound 12, N-(4-(2-(Dimethylamino)ethyl)-3,4-dihydro-2H-benzo[b][1,4]thiazin-7-yl)thiophene-2-carboximidamide dihydrochloride]: the “Selectivity eNOS/nNOS” value in assay [1] is listed as 159.1. In addition, the results for the IC50 in assay [1], in assay [2] and in assay [3] were 0.12 µM, 19.1 µM and 62.9 µM, respectively.

As for `CNCCN1CCOc2ccc(NC(=N)c3cccs3)cc21` [Compound 10, N-(4-(2-(methylamino)ethyl)-3,4-dihydro-2H-benzo[b][1,4]oxazin-6-yl)-thiophene-2-carboximidamide dihydrochloride], the “Selectivity eNOS/nNOS” value in assay [1] is 47.7. Besides, the IC50 in assay [1] stood at 0.08 µM; in assay [2] it was 3.82 µM; in assay [3], 3.74 µM.

As for `CNCCN1CCSc2cc(NC(=N)c3ccco3)ccc21` [Compound 20, N-(4-(2-(methylamino)ethyl)-3,4-dihydro-2H-benzo[b][1,4]thiazin-7-yl)furan-2-carboximidamide], in assay [1], the “Selectivity eNOS/nNOS” value is reported as 290. Moreover, the IC50 in assay [1] is 0.16 µM; in assay [2], 46.4 µM; in assay [3], 268 µM.

Consider `CN(C)CCCN1CCSc2cc(NC(=N)c3cccs3)ccc21` [Compound 22, N-(4-(3-(Dimethylamino)propyl)-3,4-dihydro-2H-benzo[b][1,4]thiazin-7-yl)thiophene-2-carboximidamide], for which the “Selectivity eNOS/nNOS” value in assay [1] was 864. Moreover, the IC50 in assay [1] worked out at 0.014 µM; in assay [2], 12.1 µM; in assay [3], 115 µM.

As for `N=C(Nc1ccc2c(c1)OCC(=O)N2CCN1CCCC1)c1cccs1` [Compound 3, N-(3-oxo-4-(2-(pyrrolidin-1-yl)ethyl)-3,4-dihydro-2H-benzo[b][1,4]oxazin-7-yl)thiophene-2-carboximidamide], the “Selectivity eNOS/nNOS” value in assay [1] was found to be 16.2. Moreover, the values for the IC50 in assay [1], in assay [2] and in assay [3] were 0.85 µM, 13.8 µM and 1.5 µM, respectively.

As for `N=C(Nc1ccc2c(c1)SCCN2CCN1CCCCC1)c1cccs1` [Compound 14, N-(4-(2-(Piperidin-1-yl)ethyl)-3,4-dihydro-2H-benzo[b][1,4]thiazin-7-yl)thiophene-2-carboximidamide], in assay [1], the “Selectivity eNOS/nNOS” value came out at 82.1. Also, the IC50 in assay [1] came to 0.14 µM; in assay [2], 11.5 µM; in assay [3], 172 µM.

With `N=C(Nc1ccc2c(c1)SCCN2CCN1CCC[C@H]1C(=O)O)c1cccs1` [Compound 18, (S)-1-(2-(7-(Thiophene-2-carboximidamido)-2H-benzo[b][1,4]thiazin-4(3H)-yl)ethyl)pyrrolidine-2-carboxylic acid dihydrochloride], the “Selectivity eNOS/nNOS” value in assay [1] was 19. Besides, the IC50 in assay [1] amounted to 0.66 µM; in assay [2], 12.6 µM; in assay [3], 341 µM.

As a reminder, the IC50 is the concentration that gives 50% inhibition.
